Measurements reported in paper PMC10382584, “Macrocyclization of linear molecules by deep learning to facilitate macrocyclic drug candidates discovery” (Nature Communications, 2023).

Tests used:
Assay in all cases: biochemical
Parameters in all cases: DiscoveRx KINOMEscan competition binding, percent of DMSO control signal at 100 nM
Details in all cases: read-out: Fig. 4a / Percent Control / Compound 1; percent of DMSO control, competition binding
KIT = KIT (Homo sapiens, UniProt P10721)
Description: (§1) The kinase selectivity profile was performed by using the DiscoveRx KINOMEscan platform. […] Test compounds were prepared as 40× stocks in 100% DMSO and directly diluted into the assay. The results were defined as a percentage of signal between the negative (DMSO, 100% control) and the positive (control compound, 0% control) control, which was calculated as follows: percent control = [(test compound signal − positive control signal)/(negative control signal − positive control signal)] × 100.

STK35 = STK35 (Homo sapiens, UniProt Q8TDR2)
Description: as §1

JNK3 = molecular target: T1, JNK3 (Homo sapiens, UniProt P53779)
T1 construct: gene MAPK10
Description: as §1

[1] = molecular target: T2, ABL1(Q252H)-nonphosphorylated (Homo sapiens, UniProt P00519, Q252H)
T2 construct: nonphosphorylated
Description: as §1

DMPK2 = molecular target: T3, DMPK2 (Homo sapiens, UniProt Q6DT37)
T3 construct: gene CDC42BPG
Description: as §1

ERK2 = molecular target: T4, ERK2 (Homo sapiens, UniProt P28482)
T4 construct: gene MAPK1
Description: as §1

CDC2L1 = molecular target: T5, CDC2L1 (Homo sapiens, UniProt P21127)
T5 construct: gene CDK11B
Description: as §1

[2] = molecular target: T6, RSK1(Kin.Dom.2-C-terminal) (Homo sapiens, UniProt Q15418)
T6 construct: gene RPS6KA1; Kin.Dom.2-C-terminal
Description: as §1

ABL1-nonphosphorylated = molecular target: T7, ABL1-nonphosphorylated (Homo sapiens, UniProt P00519)
T7 construct: nonphosphorylated
Description: as §1

[3] = molecular target: T8, JAK3(JH1domain-catalytic) (Homo sapiens, UniProt P52333)
T8 construct: JH1domain-catalytic
Description: as §1

PIK3C2G = PIK3C2G (Homo sapiens, UniProt O75747)
Description: as §1

FGFR4 = FGFR4 (Homo sapiens, UniProt P22455)
Description: as §1

SRPK3 = SRPK3 (Homo sapiens, UniProt Q9UPE1)
Description: as §1

SgK110 = molecular target: T9, SgK110 (Homo sapiens, UniProt P0C264)
T9 construct: gene SBK3
Description: as §1

DAPK2 = DAPK2 (Homo sapiens, UniProt Q9UIK4)
Description: as §1

YSK1 = molecular target: T10, YSK1 (Homo sapiens, UniProt O00506)
T10 construct: gene STK25
Description: as §1

RIPK4 = RIPK4 (Homo sapiens, UniProt P57078)
Description: as §1

MLK1 = molecular target: T11, MLK1 (Homo sapiens, UniProt P80192)
T11 construct: gene MAP3K9
Description: as §1

MARK4 = MARK4 (Homo sapiens, UniProt Q96L34)
Description: as §1

DLK = molecular target: T12, DLK (Homo sapiens, UniProt Q12852)
T12 construct: gene MAP3K12
Description: as §1

PIP5K2B = molecular target: T13, PIP5K2B (Homo sapiens, UniProt P78356)
T13 construct: gene PIP4K2B
Description: as §1

BMX = BMX (Homo sapiens, UniProt P51813)
Description: as §1

PLK4 = PLK4 (Homo sapiens, UniProt O00444)
Description: as §1

AKT1 = AKT1 (Homo sapiens, UniProt P31749)
Description: as §1

AURKB = AURKB (Homo sapiens, UniProt Q96GD4)
Description: as §1
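Also: KINOMEscan kinase panel binding assay, signal normalized between DMSO as 100% and a positive control compound as 0%.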

T13 sequence (P78356 whole entry): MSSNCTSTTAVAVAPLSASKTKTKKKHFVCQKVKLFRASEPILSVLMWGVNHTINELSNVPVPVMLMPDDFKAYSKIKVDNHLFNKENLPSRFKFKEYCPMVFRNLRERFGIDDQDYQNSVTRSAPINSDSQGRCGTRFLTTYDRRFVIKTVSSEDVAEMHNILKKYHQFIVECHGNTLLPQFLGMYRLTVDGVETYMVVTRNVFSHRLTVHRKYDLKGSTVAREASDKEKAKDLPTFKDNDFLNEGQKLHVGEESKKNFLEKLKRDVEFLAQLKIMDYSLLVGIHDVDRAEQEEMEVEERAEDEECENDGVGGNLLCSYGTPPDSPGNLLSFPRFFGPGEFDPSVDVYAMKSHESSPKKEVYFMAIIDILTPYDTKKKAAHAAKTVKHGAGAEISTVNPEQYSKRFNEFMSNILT
T12 sequence (Q12852 whole entry): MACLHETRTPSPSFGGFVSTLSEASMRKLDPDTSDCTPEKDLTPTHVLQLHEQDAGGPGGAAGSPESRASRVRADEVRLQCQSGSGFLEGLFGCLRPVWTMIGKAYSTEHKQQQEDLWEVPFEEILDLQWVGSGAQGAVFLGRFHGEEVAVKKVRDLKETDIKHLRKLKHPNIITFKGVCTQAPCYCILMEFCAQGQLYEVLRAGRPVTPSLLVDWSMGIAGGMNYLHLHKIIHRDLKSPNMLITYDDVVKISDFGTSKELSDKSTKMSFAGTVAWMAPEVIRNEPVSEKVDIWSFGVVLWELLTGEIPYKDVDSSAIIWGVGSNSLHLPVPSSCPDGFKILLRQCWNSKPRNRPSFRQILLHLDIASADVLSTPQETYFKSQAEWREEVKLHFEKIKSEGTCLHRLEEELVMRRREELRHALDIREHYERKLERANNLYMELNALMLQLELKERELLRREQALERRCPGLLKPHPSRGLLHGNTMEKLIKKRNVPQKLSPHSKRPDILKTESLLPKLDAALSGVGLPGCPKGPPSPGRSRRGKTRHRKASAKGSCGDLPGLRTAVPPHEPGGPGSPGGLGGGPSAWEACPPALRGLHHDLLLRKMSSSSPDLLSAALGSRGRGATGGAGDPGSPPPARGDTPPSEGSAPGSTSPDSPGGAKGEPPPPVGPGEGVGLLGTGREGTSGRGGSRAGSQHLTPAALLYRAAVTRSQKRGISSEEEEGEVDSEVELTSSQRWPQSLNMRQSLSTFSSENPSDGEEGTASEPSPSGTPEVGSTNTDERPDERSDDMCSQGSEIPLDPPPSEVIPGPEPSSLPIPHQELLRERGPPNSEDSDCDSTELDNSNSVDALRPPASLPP
BMX, sequence (P51813 whole entry): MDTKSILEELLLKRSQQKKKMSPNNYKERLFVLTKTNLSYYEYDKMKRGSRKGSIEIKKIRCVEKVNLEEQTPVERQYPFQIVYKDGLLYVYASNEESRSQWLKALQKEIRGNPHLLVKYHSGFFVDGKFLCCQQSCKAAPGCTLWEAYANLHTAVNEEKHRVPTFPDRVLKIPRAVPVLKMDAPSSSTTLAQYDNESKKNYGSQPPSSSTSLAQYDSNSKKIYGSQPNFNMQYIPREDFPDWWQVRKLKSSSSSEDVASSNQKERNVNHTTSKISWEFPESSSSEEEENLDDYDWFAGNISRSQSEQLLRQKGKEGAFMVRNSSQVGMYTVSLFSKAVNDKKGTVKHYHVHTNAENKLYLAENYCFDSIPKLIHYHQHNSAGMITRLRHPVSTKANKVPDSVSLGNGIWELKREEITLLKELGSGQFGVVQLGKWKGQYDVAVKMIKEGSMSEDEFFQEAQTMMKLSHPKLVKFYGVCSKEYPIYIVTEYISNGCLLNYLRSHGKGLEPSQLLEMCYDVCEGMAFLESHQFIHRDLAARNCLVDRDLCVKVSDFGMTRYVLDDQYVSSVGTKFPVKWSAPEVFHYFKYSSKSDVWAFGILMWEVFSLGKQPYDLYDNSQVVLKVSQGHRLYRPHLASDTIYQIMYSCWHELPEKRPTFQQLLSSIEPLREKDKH
FGFR4, sequence (P22455 whole entry): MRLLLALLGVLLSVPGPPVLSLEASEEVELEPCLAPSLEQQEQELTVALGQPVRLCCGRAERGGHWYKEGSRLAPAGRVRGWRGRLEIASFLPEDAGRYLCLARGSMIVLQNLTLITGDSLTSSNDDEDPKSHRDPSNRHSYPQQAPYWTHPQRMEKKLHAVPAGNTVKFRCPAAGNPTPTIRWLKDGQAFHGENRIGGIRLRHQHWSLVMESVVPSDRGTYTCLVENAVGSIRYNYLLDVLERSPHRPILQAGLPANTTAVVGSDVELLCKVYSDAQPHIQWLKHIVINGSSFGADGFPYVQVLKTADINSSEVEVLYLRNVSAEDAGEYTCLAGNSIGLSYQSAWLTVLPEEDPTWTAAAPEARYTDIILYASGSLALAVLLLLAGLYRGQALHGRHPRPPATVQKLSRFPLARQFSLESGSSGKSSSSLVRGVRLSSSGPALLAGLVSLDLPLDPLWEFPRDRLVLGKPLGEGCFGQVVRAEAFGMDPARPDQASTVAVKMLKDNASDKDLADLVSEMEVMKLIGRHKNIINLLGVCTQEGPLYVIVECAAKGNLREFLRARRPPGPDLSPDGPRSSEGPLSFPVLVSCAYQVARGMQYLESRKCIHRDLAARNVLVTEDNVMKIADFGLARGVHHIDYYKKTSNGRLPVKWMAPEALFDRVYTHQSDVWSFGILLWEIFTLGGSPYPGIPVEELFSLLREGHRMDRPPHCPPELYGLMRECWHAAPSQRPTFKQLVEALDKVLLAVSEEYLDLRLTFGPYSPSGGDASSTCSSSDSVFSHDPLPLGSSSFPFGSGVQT
PLK4, sequence (O00444 whole entry): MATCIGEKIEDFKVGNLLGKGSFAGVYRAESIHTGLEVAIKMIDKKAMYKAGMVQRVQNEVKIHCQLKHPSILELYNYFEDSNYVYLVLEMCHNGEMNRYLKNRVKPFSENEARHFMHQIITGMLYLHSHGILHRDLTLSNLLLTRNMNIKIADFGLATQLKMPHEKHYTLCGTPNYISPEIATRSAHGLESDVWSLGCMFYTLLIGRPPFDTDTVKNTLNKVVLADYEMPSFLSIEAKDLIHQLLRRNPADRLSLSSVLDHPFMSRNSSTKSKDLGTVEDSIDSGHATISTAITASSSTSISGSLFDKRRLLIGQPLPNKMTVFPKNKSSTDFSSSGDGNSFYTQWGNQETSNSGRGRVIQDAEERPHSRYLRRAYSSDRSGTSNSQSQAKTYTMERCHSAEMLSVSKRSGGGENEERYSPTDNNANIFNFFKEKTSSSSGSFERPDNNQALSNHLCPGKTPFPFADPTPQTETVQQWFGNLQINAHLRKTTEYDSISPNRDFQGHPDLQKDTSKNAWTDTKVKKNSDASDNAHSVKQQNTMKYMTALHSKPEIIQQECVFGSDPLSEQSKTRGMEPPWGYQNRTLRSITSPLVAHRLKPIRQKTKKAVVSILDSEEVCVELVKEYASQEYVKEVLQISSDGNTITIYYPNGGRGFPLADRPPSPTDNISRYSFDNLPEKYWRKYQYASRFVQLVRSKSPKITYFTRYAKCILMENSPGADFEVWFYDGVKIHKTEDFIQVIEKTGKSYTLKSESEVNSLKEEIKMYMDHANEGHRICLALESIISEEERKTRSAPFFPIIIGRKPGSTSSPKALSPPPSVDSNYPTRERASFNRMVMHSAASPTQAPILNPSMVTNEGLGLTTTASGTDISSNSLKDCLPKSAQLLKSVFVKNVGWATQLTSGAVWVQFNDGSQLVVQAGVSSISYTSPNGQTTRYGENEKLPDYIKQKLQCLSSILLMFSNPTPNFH
AKT1, sequence (P31749 whole entry): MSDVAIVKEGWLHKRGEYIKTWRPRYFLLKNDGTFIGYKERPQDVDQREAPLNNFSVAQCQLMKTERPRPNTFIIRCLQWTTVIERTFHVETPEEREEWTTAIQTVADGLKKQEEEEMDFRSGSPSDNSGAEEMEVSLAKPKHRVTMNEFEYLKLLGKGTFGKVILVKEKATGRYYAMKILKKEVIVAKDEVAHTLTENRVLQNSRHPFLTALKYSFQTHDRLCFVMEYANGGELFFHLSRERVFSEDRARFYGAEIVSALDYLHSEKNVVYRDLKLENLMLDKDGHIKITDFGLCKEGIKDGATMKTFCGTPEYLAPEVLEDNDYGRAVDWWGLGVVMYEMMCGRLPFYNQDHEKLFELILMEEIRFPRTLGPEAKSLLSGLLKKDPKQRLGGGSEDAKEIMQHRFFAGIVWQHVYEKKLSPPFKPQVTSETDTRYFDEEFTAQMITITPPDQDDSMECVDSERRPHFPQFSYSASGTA
T1 sequence (P53779 whole entry): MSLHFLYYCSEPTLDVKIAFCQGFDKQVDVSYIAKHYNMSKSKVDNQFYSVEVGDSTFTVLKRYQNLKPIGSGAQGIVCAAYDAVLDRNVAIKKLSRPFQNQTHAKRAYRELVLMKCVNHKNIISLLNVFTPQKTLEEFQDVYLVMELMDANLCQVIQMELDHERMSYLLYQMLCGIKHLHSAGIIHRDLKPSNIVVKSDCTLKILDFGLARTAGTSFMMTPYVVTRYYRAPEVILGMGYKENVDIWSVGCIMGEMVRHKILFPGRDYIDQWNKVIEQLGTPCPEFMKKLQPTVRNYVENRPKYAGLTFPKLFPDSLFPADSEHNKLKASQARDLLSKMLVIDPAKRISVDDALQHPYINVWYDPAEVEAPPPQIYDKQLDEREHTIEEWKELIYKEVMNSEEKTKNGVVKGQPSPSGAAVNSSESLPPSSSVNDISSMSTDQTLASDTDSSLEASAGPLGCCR
T9 sequence (P0C264 whole entry): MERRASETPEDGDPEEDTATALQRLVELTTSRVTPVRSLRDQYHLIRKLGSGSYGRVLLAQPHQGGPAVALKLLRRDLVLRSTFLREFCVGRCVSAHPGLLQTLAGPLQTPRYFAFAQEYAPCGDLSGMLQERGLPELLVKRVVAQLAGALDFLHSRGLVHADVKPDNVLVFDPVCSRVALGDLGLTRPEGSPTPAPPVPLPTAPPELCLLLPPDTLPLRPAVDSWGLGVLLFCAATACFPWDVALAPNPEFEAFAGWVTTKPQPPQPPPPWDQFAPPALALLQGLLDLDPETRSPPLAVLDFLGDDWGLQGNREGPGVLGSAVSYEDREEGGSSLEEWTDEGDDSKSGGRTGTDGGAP

Compound `Cc1cnc2nc1Nc1cccc(c1)COCc1cc(ccc1OCCN1CCCC1)N2` [Compound 1] has a remaining binding at 0.1 µM (KIT) of 57%, a remaining binding at 0.1 µM (STK35) of 92% and a remaining binding at 0.1 µM (JNK3) of 43%. It also gave a remaining binding at 0.1 µM [1] of 51%, a remaining binding at 0.1 µM (DMPK2) of 98% and a remaining binding at 0.1 µM (ERK2) of 100%. The remaining binding at 0.1 µM (CDC2L1) was 96%, the remaining binding at 0.1 µM [2] was 98% and the remaining binding at 0.1 µM (ABL1-nonphosphorylated) was 55%. The remaining binding at 0.1 µM [3] was 12%, the remaining binding at 0.1 µM (PIK3C2G) was 80% and the remaining binding at 0.1 µM (FGFR4) was 97%. The remaining binding at 0.1 µM (SRPK3) was 82%, the remaining binding at 0.1 µM (SgK110) was 65% and the remaining binding at 0.1 µM (DAPK2) was 98%. It also gave a remaining binding at 0.1 µM (YSK1) of 91%, a remaining binding at 0.1 µM (RIPK4) of 65% and a remaining binding at 0.1 µM (MLK1) of 100%. For the same compound, the remaining binding at 0.1 µM (MARK4) was 77%, the remaining binding at 0.1 µM (DLK) was 43% and the remaining binding at 0.1 µM (PIP5K2B) was 96%. The remaining binding at 0.1 µM (BMX) was 93%, the remaining binding at 0.1 µM (PLK4) was 96% and the remaining binding at 0.1 µM (AKT1) was 100%. The remaining binding at 0.1 µM (AURKB) was 82%.
